# Reference: patent publication US9594042B2, “Electrochemical determination of factor XA inhibitors” (Roche Diagnostics Operations Inc., priority 2006, dated 2017)
# Biological target: factor Xa (Homo sapiens, UniProt P00742)
# Experiment: premature factor Xa-induced degradation of the thrombin substrate during common dwelling in liquid reagent
# Format: biochemical
# Conditions: common dwelling time of 2 h with factor Xa
# Text: The coagulation factor Xa is a serine protease which naturally recognizes the amino sequence -Ile-Glu-Gly-Arg- of prothrombin and by cleaving this sequence, activates the natural substrate prothrombin to form thrombin. In addition to this physiological substrate, factor Xa is also able to enzymatically cleave other peptides having this or other cleavage sequences. Thus, peptidic thrombin substrates and in particular the widely used Chromozym TH can also be cleaved by factor Xa. This low substrate specificity of factor Xa can result in problems in the methods according to the invention especially when such a thrombin substrate which can also be cleaved by factor Xa is used as a detection reagent and already comes into contact with factor Xa before adding the sample and can be converted thereby. As a result a portion of the thrombin substrate can already be converted such that this is no longer available for the thrombin-mediated detection reaction and thus the result of the measurement is affected. Such undesired side reactions can occur especially when factor Xa and the thrombin substrate are in contact over a long period such as would be for example the case if these two substances were to be introduced simultaneously into a liquid detection reagent. […]
# factor Xa, sequence (P00742 235-488 limits assumed): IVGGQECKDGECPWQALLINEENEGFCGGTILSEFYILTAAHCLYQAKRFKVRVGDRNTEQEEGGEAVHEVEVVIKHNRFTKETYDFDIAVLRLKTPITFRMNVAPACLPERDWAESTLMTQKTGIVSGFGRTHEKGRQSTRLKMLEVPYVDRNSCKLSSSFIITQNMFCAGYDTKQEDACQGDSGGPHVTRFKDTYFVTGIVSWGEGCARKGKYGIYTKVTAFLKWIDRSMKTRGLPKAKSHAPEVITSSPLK
# factor Xa, sequence (P00742 41-179 partner limits assumed): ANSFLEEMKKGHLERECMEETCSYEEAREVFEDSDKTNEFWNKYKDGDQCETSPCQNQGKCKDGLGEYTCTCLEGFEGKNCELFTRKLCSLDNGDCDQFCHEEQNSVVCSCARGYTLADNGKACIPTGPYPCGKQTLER
substance,measurement,value
tosyl-glycy-prolyl-arginine-4-nitroanilide acetate [reduced Chromozym TH],portion of the reduced Chromozym TH cleaved due alone to the action of factor Xa,about 25%
